Experimental data published in patent US9458113B2 (Boehringer Ingelheim International GmbH, priority 2014, dated 2016).
In brackets after ≈: the same amount, converted by molar mass.

Columns and labels:
[1] = Metabolic stability with human liver microsomes; format: in vitro ADME; details: pH 7.6; pooled human liver microsomes, 1 μM test compound, 37° C.; read-out: t1/2 INVITRO
[2] = Aqueous solubility (Shaked Flask Method); format: physicochemical; details: aqueous buffer, thermodynamic from solid, pH 6.8
Protocol: Assay for Determination of Aqueous Solubility (“Shaked Flask Method”)
Saturated solutions are prepared in well plates by adding an appropriate volume of selected aqueous media (typically in the range of 0.25-1.5 ml) into each well which contains a known quantity of solid drug substance (typically in the range 0.5-5.0 mg). The wells are shaken or stirred for a predefined time period (typically in a range of 2-24 h) and then filtered using appropriate filter membranes (typically PTFE-filters with 0.45 μm pore size). Filter absorption is avoided by discarding the first few drops of filtrate. The amount of dissolved drug substance is determined by UV spectroscopy or by HPLC with UV-detection. In addition, the pH of the aqueous saturated solution is measured using a glass-electrode pH meter.

[3] = Aqueous solubility (High Throughput Method); format: physicochemical; details: McIlvaine buffer pH 6.8 with 2.5% DMSO, kinetic from dmso stock, McIlvaine buffer pH 6.8, 2.5% DMSO, 24 h shaking
Protocol: Assay for Determination of Aqueous Solubility (“High Throughput Method”)
Starting from a […] DMSO stock solution, aliquots are diluted with acetonitrile/water (1/1) and McIlvaine buffer pH 6.8, respectively. After 24 h of shaking, the solutions or suspensions are filtered and analyzed by LC-UV. The amount dissolved in buffer is compared to the amount dissolved in the acetonitrile/water (1/1) solution. Solubility is measured from 0.001 to 0.125 mg/ml at a DMSO concentration of 2.5%. If more than 90% of the compound is dissolved in buffer, the value is marked with “>”.

[4] = target: Human neutrophil elastase (Homo sapiens (Human), UniProt P08246); experiment: Human Neutrophil Elastase Assay; format: biochemical; details: substrate MeOSuc-Ala-Ala-Pro-Val-AMC 250 μM, pH 7.5
[5] = target: neutrophil elastase in zymosan-stimulated human plasma (Homo sapiens (Human), UniProt P08246); experiment: Neutrophil elastase inhibitory activity in human plasma; format: biochemical; details: human plasma from zymosan-stimulated blood
[6] = Drug transport across human Caco-2 cells; format: in vitro ADME; details: apparent permeability coefficient, Caco-2 monolayers, pH 7.2, 37° C.; for Papp A→B at 10 µM: apical-to-basal (absorptive), read-out: PEAB; for Papp B→A at 10 µM: basal-to-apical (secretory), read-out: PEBA
From the text: Assay for Determination of Drug Transport Across Human Caco-2 Cells
The assay provides information on the potential of a compound to pass the cell membrane, on the extent of oral absorption as well as on whether the compound is actively transported by uptake and/or efflux transporters. For the measurement of permeability across polarized, confluent human cancer colon carcinoma cells 2 (Caco-2) cell monolayers grown on permeable filter supports are used as the in vitro absorption model.
Apparent permeability coefficients (PE) of the compounds across the Caco-2 monolayers are measured (pH 7.2, 37° C.) in apical-to-basal (AB) (absorptive) and basal-to-apical (BA) (secretory) transport direction. AB permeability (PEAB) represents drug absorption from the intestine into the blood and BA permeability (PEBA) drug secretion from the blood back into the intestine via both passive permeability as well as active transport mechanisms mediated by efflux and uptake transporters that are expressed on the Caco-2 cells. The compounds are assigned to permeability/absorption classes by comparison of the AB permeabilities with the AB permeabilities of reference compounds with known in vitro permeability and oral absorption in the human. Identical or similar permeabilities in both transport directions indicate passive permeation, vectorial permeability points to additional active transport mechanisms. […] Active transport is concentration-dependently saturable.
Caco-2 cells (1-2*10^5 cells/cm^2 area) are seeded on filter inserts (Costar transwell polycarbonate or PET filters, 0.4 μm pore size) and cultured (DMEM) for 10 to 25 days. Compounds are dissolved in appropriate solvent (like DMSO, […] stock solutions). Stock solutions are diluted with HTP-4 buffer (128.13 mM NaCl, 5.36 mM KCl, 1 mM MgSO4, 1.8 mM CaCl2, 4.17 mM NaHCO3, 1.19 mM Na2HPO4x7H2O, 0.41 mM NaH2PO4xH2O, 15 mM HEPES, 20 mM glucose, pH 7.2) to prepare the transport solutions (typically 10 μM compound, final DMSO<=0.5%). The transport solution (TL) is applied to the apical or basolateral donor side for measuring A-B or B-A permeability (3 filter replicates), respectively. The receiver side contains HTP-4 buffer supplemented with 2% BSA. Samples are collected at the start and end of experiment from the donor and at various time intervals for up to 2 hours also from the receiver side for concentration measurement by LC-MS/MS or scintillation counting. Sampled receiver volumes are replaced with fresh receiver solution.
The apparent permeability coefficients (PEAB and PEBA) of selected compounds in the Caco-2 drug transport assay described above are listed in Table 16.

human hepatocytes = experiment: Metabolic stability with human hepatocytes; format: in vitro ADME; details: 1 μM test compound, well stirred model
Protocol: Assay for the Determination of Metabolic Stability with Human Hepatocytes
The metabolic degradation of the test compound is assayed in a human hepatocyte suspension. Human hepatocytes (typically cryopreserved) are incubated in an appropriate buffer system (e.g. Dulbecco's modified eagle medium plus 3.5 μg glucagon/500 mL, 2.5 mg insulin/500 mL and 3.75 mg/500 mL hydrocortison) containing 5% species serum. Following a (typically) […] preincubation in an incubator (37° C., 10% CO2), 5 μl of test compound solution (80 μM; from […] stock solution in DMSO diluted 1:25 with medium) are added into 395 μl hepatocyte suspension (cell density in the range 0.25-5*10^6 cells/mL, typically 1*10^6 cells/mL; final concentration of test compound 1 μM, final DMSO concentration 0.05%). The cells are incubated for six hours (incubator, orbital shaker) and samples (25 μl) are taken at 0, 0.5, 1, 2, 4 and 6 hours. Samples are transferred into acetonitrile and pelleted by centrifugation (5 min) The supernatant is transferred to a new 96-deepwell plate, evaporated under nitrogen and resuspended. The decline of parent compound is analyzed by LC-MS/MS.
The intrinsic clearance CL_[…] is calculated as follows: CL_[…]=Dose/AUC=(C0/CD)/(AUD+clast/k)*1,000/60
(C0: initial concentration in the incubation [μM], CD: cell density of vital cells [10^6 cells/mL], AUD: area under the data [μM*h], clast: concentration of last data point [μM], k: slope of the regression line for parent decline [h^−1])
The calculated in vitro hepatic intrinsic clearance Qh can be scaled up to the intrinsic in vivo hepatic clearance and used to predict hepatic in vivo blood clearance (CL) by the use of a liver model (well stirred model): CL_[…]_INVIVO [ml/min/kg]=(CL_[…] [μL/min/10^6 cells]*hepatocellularity [10^6 cells/g liver]*liver factor [g/kg bodyweight])/1,000 CL [ml/min/kg]=CL_[…]_INVIVO [ml/min/kg]*hepatic blood flow [ml/min/kg]/(CL_[…]_INVIVO [ml/min/kg]+hepatic blood flow [ml/min/kg]) Qh [%]=CL [ml/min/kg]/hepatic blood flow [ml/min/kg])
(Hepatocellularity, human: 120*10^6 cells/g liver; liver factor, human: 25.7 g/kg bodyweight; blood flow, human: 21 ml/(min*kg))
The calculated in-vitro hepatic intrinsic clearance values of selected compounds in the metabolic stability assay with human hepatocytes described above are listed in Table 15.

neutrophil elastase in zymosan-stimulated human plasma, sequence (P08246 30-247): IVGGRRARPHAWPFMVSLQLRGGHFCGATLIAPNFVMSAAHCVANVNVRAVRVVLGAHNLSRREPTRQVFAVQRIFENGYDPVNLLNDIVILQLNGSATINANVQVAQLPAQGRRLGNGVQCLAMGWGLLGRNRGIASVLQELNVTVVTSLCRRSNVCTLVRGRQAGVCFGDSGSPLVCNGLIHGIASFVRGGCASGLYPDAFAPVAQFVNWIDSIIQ
Human neutrophil elastase, sequence (P08246 30-247): as above

Row | half-life at 1 μM [1] [h] | solubility [2] [µg/mL] | solubility at 24 h [3] [µg/mL] | IC50 [4] [nM] | EC50 [5] [nM] | Papp A→B at 10 µM [6] [×10⁻⁶ cm/s] | Papp B→A at 10 µM [6] [×10⁻⁶ cm/s] | Qh (human hepatocytes) [%] | SMILES
1 | > 2.17 | > 10 | 83 (≈ 170 µM) | 3.8 | 6 | 52 | 77 | 12 | CN1C(=O)N(c2cccc(C(F)(F)F)c2)C2=C(C(=O)CC2)C1c1ccc(C#N)cc1-c1ccncn1 (stereo not shown) [Example 22, 4-[3-Methyl-2,5-dioxo-1-(3-trifluoromethyl-phenyl)-2,3,4,5,6,7-hexahydro-1H-cyclopentapyrimidin-4-yl]-3-pyrimidin-4-yl-benzonitrile]
2 | > 2.17 | > 10 | 50 (≈ 102 µM) | 1.3 | 2 | 52 | 67 | 23 | CN1C(=O)N(c2cccc(C(F)(F)F)c2)C2=C(C(=O)CC2)C1c1ccc(C#N)cc1-c1cncnc1 (stereo not shown) [Example 21]
